Test results: EP4772510A2, “BENZAZEPINONE COMPOUND AND USE THEREOF” (HANGZHOU BIO-SINCERITY PHARMA-TECHCO., LTD., priority 2023, dated 2025)

Legend:
[1] = system: HT-29 cells; assay: Inhibition of TNF-α-induced necroptosis of HT-29 cells (SRB method); type: cell-based, human; settings: Homo sapiens, HT-29, TNF-α 20 ng/mL + BV6 2 µM + Z-VAD-FMK 20 µM, 18 h
Source text: Example 57: Inhibition of TNF-α-Induced Necroptosis of HT-29 Cells by Compounds
• 1. Experimental reagents: McCOY's 5A culture medium, fetal bovine serum, penicillin-streptomycin, trypsin, PBS, TNF-α (MCE, HY-P7058), BV6 (MCE, HY-16701), Z-VAD-FMK (MCE, HY-16658B), SRB kit (Shanghai BestBio Biotechnology Co., Ltd., BB-4208-500T). • 2. Experimental instruments: medical low-temperature freezer (Thermo Fisher scientific, 902-ULTS), electrically heated thermostatic water bath (Shanghai Bluepard Instruments Co., Ltd., CD-420), low-speed centrifuge (ANHUI USTC Zonkia Scientific Instruments Co., Ltd, SC-3616), carbon dioxide incubator (Shanghai Bluepard Instruments Co., Ltd., BPN-150CH(UV)), inverted microscope (Olympus, CKX53), multi-functional microplate reader (Thermo Tecan, SPARK), class-II biosafety cabinet (AIRTECH, BSC-1304IIA2), and desktop cell counter (Thermo Fisher Scientific, Countess II). • 3. Cell culturing: HT-29 cells (human colon cancer cells) were cultured in a McCOY's 5A culture solution containing 10% fetal bovine serum and 1% penicillin-streptomycin solution in a 5% CO 2 at 37 °C and a saturated humidity, and culture medium changes and cell passaging were performed 3-4 times a week. • 4. […] The culture medium, trypsin, etc., were taken out from the freezer and transferred to the water bath for pre-heating. An appropriate amount of these substances was then taken for use. • (2) The old culture medium in the flask was aspirated using a sterile pipette and discarded, and the cells were washed 3 times with PBS. 1 mL of trypsin (25 cm^2 cell culture flask) was added into the flask, and the flask was gently shaken to allow the trypsin to cover all the cell surfaces. Digestion was performed in an incubator at 37 °C. After 2 min of digestion, the flask was placed under a microscope for observation. […] The mixture was gently pipetted using a pipette to homogenize the cells and thus prepare a single-cell suspension, and the cells were counted. • (5) The cells were diluted to 3 × 10^5/mL and seeded into a 96-well plate at 100 µL/well, such that there were 3 × 10^4 cells per well in the 96-well plate. The cells were incubated in a 5% CO2 incubator at 37 °C and a saturated humidity for 24 h, followed by the addition of compounds. • 4.2 Dilution and addition of compounds: • (1) TNF-α was dissolved in PBS to obtain a 100 µg/mL stock solution and aliquoted; Z-VAD-FMK was dissolved in DMSO to obtain a 10 mM stock solution and aliquoted; BV6 was dissolved in DMSO to obtain a 10 mM stock solution and aliquoted; GSK2982772 was dissolved in DMSO to obtain a 10 mM stock solution and aliquoted. One aliquot of each stock solution was stored at -20 °C for immediate use, while the remaining aliquots were stored at - 80 °C and used within their shelf life. • (2) McCOY's 5A culture solution containing TNF-α, BV6, and Z-VAD-FMK was prepared. For the positive control group and the test compound groups, the McCOY's 5A culture solution was added at 90 µL/well, and 10 µL of the culture medium containing the test compound was also added, thus making the final concentrations of TNF-α, BV6, and Z-VAD-FMK be 20 ng/mL, 2 µM, and 20 µM, respectively. For the DMSO (5‰) control group, 90 µL of the McCOY's 5A complete culture solution was added, and then 10 µL of DMSO was added, thus making the final concentration 5‰. • (3) Each target compound was three-fold diluted with a culture medium to 8 concentration gradients, with each concentration set in duplicate (10 µL/well). The final concentrations of each target compound were 1000.00/333.33/111.11/37.04/12.35/4.12/1.37/0.46 nM. • (4) The 96-well plate cultured for 24 h was taken out from the incubator, and the culture medium in the 96-well plate was carefully aspirated and discarded. A positive control group, test compound groups, and a DMSO (5‰) control group were set, and 10 µL of the corresponding compound was added to each group. […]

[2] = system: U937 cells; assay: Inhibition of TNF-α-induced necroptosis of U937 cells (CCK-8 assay); type: cell-based, human; settings: Homo sapiens, U-937, TNF-α 20 ng/mL + BV6 2 µM + Z-VAD-FMK 20 µM, 18 h
Source text: Example 56: Inhibition of TNF-α-Induced Necroptosis of U937 Cells by Compounds
• 1. Experimental reagents: RPMI-1640 culture medium, fetal bovine serum, penicillin-streptomycin, TNF-α (MCE, HY-P7058), BV6 (MCE, HY-16701), Z-VAD-FMK (MCE, HY-16658B), and CCK-8 (Dalian Meilun Biotech Co., Ltd., MA0218). • 2. Experimental instruments: medical low-temperature freezer (Thermo Fisher scientific, 902-ULTS), electrically heated thermostatic water bath (Shanghai Bluepard Instruments Co., Ltd., CD-420), low-speed centrifuge (ANHUI USTC Zonkia Scientific Instruments Co., Ltd, SC-3616), carbon dioxide incubator (Shanghai Bluepard Instruments Co., Ltd., BPN-150CH(UV)), inverted microscope (Olympus, CKX53), multi-functional microplate reader (Thermo Tecan, SPARK), class-II biosafety cabinet (AIRTECH, BSC-1304IIA2), and desktop cell counter (Thermo Fisher Scientific, Countess II). • 3. Cell culturing: U937 cells (human histiocytic lymphoma cells) were cultured in an RPMI-1640 culture solution containing 10% fetal bovine serum and 1% penicillin-streptomycin solution in a 5% CO2 incubator at 37 °C and a saturated humidity. The cell culture flask was vertically placed in the incubator. A T25 culture flask was used as an example, the culture solution in the flask was 6-8 mL, and culture medium changes and cell passaging were performed 3-4 times a week. • 4. […] The culture medium was taken out from the freezer and transferred to the water bath for pre-heating. An appropriate amount of culture medium was then taken for use. • (2) The cell suspension was transferred to a 15 mL sterile centrifuge tube and centrifuged at 850 rpm for 4 min to collect U937 cells. • (3) The supernatant was carefully discarded, and an appropriate amount of culture medium was added. The mixture was gently pipetted using a pipette to homogenize the cells and thus prepare a single-cell suspension, and the cells were counted. • (4) The cells were diluted to 4 × 10^5/mL and seeded into a 96-well plate at 90 µL/well, such that the cell density in the 96-well plate was 3.6 × 10 ^4 cells/well. The cells were incubated in a 5% CO 2 incubator at 37 °C and a saturated humidity for 6 h, followed by the addition of compounds. • 4.2 Dilution and addition of compounds: • (1) TNF-α was dissolved in PBS to obtain a 100 µg/mL stock solution and aliquoted; Z-VAD-FMK was dissolved in DMSO to obtain a 10 mM stock solution and aliquoted; BV6 was dissolved in DMSO to obtain a 10 mM stock solution and aliquoted; GSK2982772 was dissolved in DMSO to obtain a 10 mM stock solution and aliquoted. One aliquot of each stock solution was stored at -20 °C for immediate use, while the remaining aliquots were stored at - 80 °C and used within their shelf life. • (2) RPMI-1640 culture medium containing TNF-α, BV6, and Z-VAD-FMK was prepared (5 µL/per well), such that the final concentrations of TNF-α, BV6, and Z-VAD-FMK were 20 ng/mL, 2 µM, and 20 µM, respectively. • (3) Each target compound was three-fold diluted with a culture medium to 8 concentration gradients, with each concentration set in duplicate (5 µL/well). The final concentrations of each target compound were 1000.00/333.33/111.11/37.04/12.35/4.12/1.37/0.46 nM. • (4) The 96-well plate containing 90 µL of cell suspension was taken out from an incubator, and a positive control group, test compound groups, and a DMSO (5‰) control group were set. 5 µL of RPMI-1640 culture solution containing TNF-α, BV6, and Z-VAD-FMK and 5 µL of culture solution containing the test compound were added to the positive control group and the test compound groups. After compound addition, the mixtures were cultured for 18 h, followed by the CCK-8 assay. • (5) The 96-well plate was taken out, and the CCK-8 reagent was carefully added at 10 µL/well. The mixtures were incubated at 37 °C for 2-4 h, and the absorbance value was measured at a wavelength of 450 nm. • 5. Evaluation of inhibitory activity of compounds on TNF-α-induced necroptosis of U937 [formula] […]

SMILES	EC50 [1] [nM]	EC50 [2] [nM]
O=C(NC1CCc2cc(C#CC3CC3)cc3c2N(CC3)C1=O)c1nnc(Cc2ccccc2)[nH]1 (stereo not drawn) [Compound I-1, 5-benzyl-N-(9-(cyclopropylethynyl)-4-oxo-1,2,3,4,6,7-hexahydroazepino[3,2,1-hi]indol-3-yl)-4H-1,2,4-triazole-3-carboxamide]	100 to 200	> 200
O=C(NC1CCc2cc(C#Cc3ccccn3)cc3c2N(CC3)C1=O)c1nnc(Cc2ccccc2)[nH]1 (stereo not drawn) [Compound I-2, 5-benzyl-N-(4-oxo-9-(pyridin-2-ylethynyl)-1,2,3,4,6,7-hexahydroazepino[3,2,1-hi]indol-3-yl)-4H-1,2,4-triazole-3-carboxamide]	10 to 100	100 to 200
O=C(NC1CCc2cc(C#Cc3cccnc3)cc3c2N(CC3)C1=O)c1nnc(Cc2ccccc2)[nH]1 (stereo not drawn) [Compound I-3, 5-benzyl-N-(4-oxo-9-(pyridin-3-ylethynyl)-1,2,3,4,6,7-hexahydroazepino[3,2,1-hi]indol-3-yl)-4H-1,2,4-triazole-3-carboxamide]	10 to 100	100 to 200
O=C(NC1CCc2cc(C#Cc3ccncc3)cc3c2N(CC3)C1=O)c1nnc(Cc2ccccc2)[nH]1 (stereo not drawn) [Compound I-4, 5-benzyl-N-(4-oxo-9-(pyridin-4-ylethynyl)-1,2,3,4,6,7-hexahydroazepino[3,2,1-hi]indol-3-yl)-4H-1,2,4-triazole-3-carboxamide]	100 to 200	100 to 200
Cn1cc(C#Cc2cc3c4c(c2)CCN4C(=O)C(NC(=O)c2nnc(Cc4ccccc4)[nH]2)CC3)cn1 (stereo not drawn) [Compound I-5, 5-benzyl-N-(9-((1-methyl-1H-pyrazol-4-yl)ethynyl)-4-oxo-1,2,3,4,6,7-hexahydroazepino[3,2,1-hi]indol-3-yl)-4H-1,2,4-triazole-3-carboxamide]	100 to 200	10 to 100
O=C(NC1CCc2cc(C#CC3CCOCC3)cc3c2N(CC3)C1=O)c1nnc(Cc2ccccc2)[nH]1 (stereo not drawn) [Compound I-6, 5-benzyl-N-(4-oxo-9-((tetrahydro-2H-pyran-4-yl)ethynyl)-1,2,3,4,6,7-hexahydroazepino[3,2,1-hi]indol-3-yl)-4H-1,2,4-triazole-3-carboxamide]	10 to 100	10 to 100
CC(C)(O)C#Cc1cc2c3c(c1)CCN3C(=O)C(NC(=O)c1nnc(Cc3ccccc3)[nH]1)CC2 (stereo not drawn) [Compound I-7, 5-benzyl-N-(9-(3-hydroxy-3-methylbut-1-yn-1-yl)-4-oxo-1,2,3,4,6,7-hexahydroazepino[3,2,1-hi]indol-3-yl)-4H-1,2,4-triazole-3-carboxamide]	> 200	100 to 200
O=C(NC1CCc2cc(C#Cc3ccncc3)cc3c2N(CC3)C1=O)c1nnc(Cc2ccc(F)cc2)[nH]1 (stereo not drawn) [Compound I-8, 5-(4-fluorobenzyl)-N-(4-oxo-9-(pyridin-4-ylethynyl)-1,2,3,4,6,7-hexahydroazepino[3,2,1-hi]indol-3-yl)-4H-1,2,4-triazole-3-carboxamide]	> 200	> 200
O=C(NC1CCc2cc(C#Cc3ccncc3)cc3c2N(CC3)C1=O)c1nnc(Cc2ccc(Cl)cc2)[nH]1 (stereo not drawn) [Compound I-9, 5-(4-chlorobenzyl)-N-(4-oxo-9-(pyridin-4-ylethynyl)-1,2,3,4,6,7-hexahydroazepino[3,2,1-hi]indol-3-yl)-4H-1,2,4-triazole-3-carboxamide]	> 200	> 200
O=C(NC1CCc2cc(C#Cc3ccncc3)cc3c2N(CC3)C1=O)c1nnc(Cc2ccccc2Cl)[nH]1 (stereo not drawn) [Compound I-10, 5-(2-chlorobenzyl)-N-(4-oxo-9-(pyridin-4-ylethynyl)-1,2,3,4,6,7-hexahydroazepino[3,2,1-hi]indol-3-yl)-4H-1,2,4-triazole-3-carboxamide]	> 200	100 to 200
O=C(NC1CCc2cc(C#Cc3ccncc3)cc3c2N(CC3)C1=O)c1nnc(Cc2ccccc2F)[nH]1 (stereo not drawn) [Compound I-11, 5-(2-fluorobenzyl)-N-(4-oxo-9-(pyridin-4-ylethynyl)-1,2,3,4,6,7-hexahydroazepino[3,2,1-hi]indol-3-yl)-4H-1,2,4-triazole-3-carboxamide]	100 to 200	100 to 200
O=C(NC1CCc2cc(C#Cc3ccncc3)cc3c2N(CC3)C1=O)c1nnc(Cc2c(F)cccc2F)[nH]1 (stereo not drawn) [Compound I-12, 5-(2,6-difluorobenzyl)-N-(4-oxo-9-(pyridin-4-ylethynyl)-1,2,3,4,6,7-hexahydroazepino[3,2,1-hi]indol-3-yl)-4H-1,2,4-triazole-3-carboxamide]	10 to 100	10 to 100
